# Patent US9783552B2, “Soluble guanylate cyclase activators” (MERCK SHARP & DOHME CORP., priority 2013, dated 2017)
# Tests used:
# [1] = tested on: Spontaneously hypertensive rats (SHR); test: Acute Efficacy in Spontaneously Hypertensive Rats (SHR); format: in vivo, rat; details: single oral gavage
# Source text: Acute Efficacy in Spontaneously Hypertensive Rats (SHR)
# Spontaneously hypertensive rats (SHR, male, Charles River) were implanted with DSI TA 11PA-C40 telemetry device (Data Sciences, Inc., St. Paul, Minn.) under isoflurane or ketamine/metomidine anesthesia. The telemetry unit catheter was inserted into the descending aorta via the femoral artery and the telemetry device was implanted subcutaneously in the left flank area. Animals were allowed to recover from surgery for 14 days before the start of any studies. Blood pressure, heart rate, and activity signals from conscious, freely moving rats were recorded continuously for 30 seconds every 10 min. On the day prior to administration of compound, a single oral dose of vehicle (10% transcutol/20% Cremophor/70% water) was administered to all animals to establish baseline control data. The blood pressure lowering efficacy of compound (PO) or vehicle was evaluated following a single oral gavage. Data were collected as hourly averages, and changes in blood pressure were calculated by subtracting control baseline data on an hourly basis. Animals were maintained on normal diet with a 12 h light-dark cycle.
# Maximum peak decreases of systolic blood pressure (SBP) in SHR at a particular P.O. dose (mpk milligrams per kilogram) for the following Example compounds are provided. Category A=SBP in SHRs<25 mmHg; Category B=SBP in SHRs 25-40 mmHg; Category C=SBP in SHRs>40 mmHg.
# [2] = target: T1, sGC α1/β1 heterodimer (Homo sapiens, UniProt Q02108+Q02153); test: Cell-Based sGC Functional Assay (CASA Assay); details: CHO-K1/sGC cells; for EC50: intracellular cGMP by HTRF, 1 hr at 37° C., IP from 4P fit, presence or absence of 1 μM DETA-NO not given; for Emax: cGMP as percentage of maximum cGMP production of Compound A (=100% activation), read-out: % ACT (percent activation)
# T1 construct: expressed in transfected cells
# T1 sequence (Q02108 1-690): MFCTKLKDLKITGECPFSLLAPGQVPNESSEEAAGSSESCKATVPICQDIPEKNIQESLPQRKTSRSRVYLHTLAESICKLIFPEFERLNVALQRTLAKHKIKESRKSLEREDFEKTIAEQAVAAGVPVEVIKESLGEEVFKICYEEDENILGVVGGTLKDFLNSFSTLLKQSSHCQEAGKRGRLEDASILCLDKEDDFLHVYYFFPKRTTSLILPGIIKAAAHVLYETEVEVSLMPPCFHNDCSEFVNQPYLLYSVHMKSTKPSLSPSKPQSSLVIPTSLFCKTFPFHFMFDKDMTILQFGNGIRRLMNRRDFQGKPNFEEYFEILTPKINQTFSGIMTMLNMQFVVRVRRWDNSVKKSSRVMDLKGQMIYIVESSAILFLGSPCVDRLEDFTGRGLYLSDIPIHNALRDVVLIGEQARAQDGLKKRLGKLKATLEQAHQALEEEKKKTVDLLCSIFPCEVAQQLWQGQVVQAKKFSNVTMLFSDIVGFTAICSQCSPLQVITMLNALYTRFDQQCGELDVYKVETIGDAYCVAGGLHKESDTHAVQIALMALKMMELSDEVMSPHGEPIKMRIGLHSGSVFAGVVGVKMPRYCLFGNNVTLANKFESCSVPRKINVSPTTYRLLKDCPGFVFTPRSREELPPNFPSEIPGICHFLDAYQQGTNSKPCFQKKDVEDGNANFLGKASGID
# T1 sequence (Q02153 1-619): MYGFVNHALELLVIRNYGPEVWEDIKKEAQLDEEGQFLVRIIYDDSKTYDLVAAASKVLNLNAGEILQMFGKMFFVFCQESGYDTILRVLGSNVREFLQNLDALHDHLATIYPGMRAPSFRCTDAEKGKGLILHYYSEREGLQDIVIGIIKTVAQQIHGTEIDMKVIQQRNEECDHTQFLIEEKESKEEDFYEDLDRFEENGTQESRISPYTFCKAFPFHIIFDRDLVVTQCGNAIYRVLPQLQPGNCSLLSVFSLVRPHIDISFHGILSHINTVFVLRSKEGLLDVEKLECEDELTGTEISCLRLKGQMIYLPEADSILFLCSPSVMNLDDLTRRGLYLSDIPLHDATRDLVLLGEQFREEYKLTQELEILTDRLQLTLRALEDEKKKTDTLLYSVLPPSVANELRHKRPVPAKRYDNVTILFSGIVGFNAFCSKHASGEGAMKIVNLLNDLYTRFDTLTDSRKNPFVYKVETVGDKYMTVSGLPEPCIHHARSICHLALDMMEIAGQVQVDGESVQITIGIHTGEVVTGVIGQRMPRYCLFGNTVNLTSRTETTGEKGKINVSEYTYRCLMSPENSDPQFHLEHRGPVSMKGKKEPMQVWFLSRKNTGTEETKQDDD
# Procedure, shortened: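 CHO-K1 cells stably expressing human sGC α1/β1 were incubated with compound (2.5% DMSO) for 1 hr at 37 °C with 0.5 mM IBMX, with or without 1 μM DETA-NO. Intracellular cGMP was measured by HTRF and expressed as % of the maximal cGMP produced by a reference sGC heme-dependent activator. IP and maximum fold induction came from a 4-parameter fit.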
EC50 [2] [nM],Emax [2] [%],SMILES,"Maximum peak decrease of systolic blood pressure (SBP) in SHR, Category ([1]; Dose 3 mpk P.O.)","Maximum peak decrease of systolic blood pressure (SBP) in SHR, Category ([1]; Dose 1 mpk P.O.)"
157,127,"Cn1ncc2c(-c3nc(N)c4c(n3)NC(=O)C4(C)c3ccc(F)cc3)nc(Cc3cccc(F)c3F)nc21 (single isomer, unassigned) [Example 6, 4-Amino-2-(6-(2,3-difluorobenzyl)-1-methyl-1H-pyrazolo[3,4-d]pyrimidin-4-yl)-5-(4-fluorophenyl)-5-methyl-5H-pyrrolo[2,3-d]pyrimidin-6(7H)-one]",A (Category A=SBP in SHRs<25 mmHg),
594,67,"[2H]C([2H])([2H])n1nnc2c(-c3nc(N)c4c(n3)NC(=O)C4(C)c3ccc(OC)cc3)nc(CCC(F)(F)C(F)(F)F)nc21 (single isomer, unassigned) [Example 71, 4-Amino-5-(4-methoxyphenyl)-5-methyl-2-(5-(3,3,4,4,4-pentafluorobutyl-3-trideuteriomethyl)-3H-[1,2,3]triazolo[4,5-d]pyrimidin-7-yl)-5H-pyrrolo[2,3-d]pyrimidin-6(7H)-one]",,A (Category A=SBP in SHRs<25 mmHg)
130,108,"Cn1ncc2c(-c3nc(N)c4c(n3)NC(=O)C4(C)c3ccccc3)nc(CCC(F)(F)F)nc21 (single isomer, unassigned) [Example 4, 4-Amino-5-methyl-2-(1-methyl-6-(3,3,3-trifluoropropyl)-1H-pyrazolo[3,4-d]pyrimidin-4-yl)-5-phenyl-5H-pyrrolo[2,3-d]pyrimidin-6(7H)-one]",C (Category C=SBP in SHRs>40 mmHg),
285,75,"[2H]C([2H])([2H])n1ncc2c(-c3nc(N)c4c(n3)NC(=O)C4(C)C)nc(CCC(F)(F)C(F)(F)F)nc21 [Example 12, 4-Amino-5,5-dimethyl-2-(6-(3,3,4,4,4-pentafluorobutyl)-1-trideuteriomethyl-1H-pyrazolo[3,4-d]pyrimidin-4-yl)-5H-pyrrolo[2,3-d]pyrimidin-6(7H)-one]",,B (Category B=SBP in SHRs 25-40 mmHg)
